Experimental data as given in ChEMBL document CHEMBL1138936, “Potent hFPRL1 (ALXR) agonists as potential anti-inflammatory agents” (Bioorg Med Chem Lett, 2006).
The source made the active and inactive calls. The calls are words filed in the database; no cut-off is given here.

How the values were obtained:
[1] = target: T1, N-formyl peptide receptor 2 (Homo sapiens, UniProt P25090); assay: Activity at human FPRL1-mediated calcium mobilization in CHO cells; format: functional, cell-based
T1 sequence (P25090 whole entry): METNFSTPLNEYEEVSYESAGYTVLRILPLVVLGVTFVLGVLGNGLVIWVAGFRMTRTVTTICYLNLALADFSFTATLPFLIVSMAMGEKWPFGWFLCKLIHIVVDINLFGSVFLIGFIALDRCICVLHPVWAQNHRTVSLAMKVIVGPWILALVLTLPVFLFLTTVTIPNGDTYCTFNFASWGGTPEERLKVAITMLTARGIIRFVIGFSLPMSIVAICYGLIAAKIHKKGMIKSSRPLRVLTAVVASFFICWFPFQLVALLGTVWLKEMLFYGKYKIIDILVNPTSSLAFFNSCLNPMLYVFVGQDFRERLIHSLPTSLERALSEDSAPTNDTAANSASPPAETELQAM

Mus musculus [2] = assay: Unbound ligand concentration in mouse plasma at 5 mg/kg; format: ADME, organism-based; design: dose 5 mg/kg; conditions: in vivo
[3] = Clearance in rat at 0.5 mg/kg, iv; format: ADME, organism-based; design: dose 0.5 mg/kg, route intravenous; conditions: in vivo
Mus musculus [4] = assay: Reduction of edema in mouse ear inflammation model at 16.6 mg/kg, po; format: functional; design: scale not given: the % may be the effect or the level left
PMNL [5] = assay: Inhibition of fMLP-induced PMN migration; format: functional, cell-based; conditions: Homo sapiens
PMNL [6] = assay: Inhibition of IL8-induced PMN migration; format: functional, cell-based; conditions: Homo sapiens
Mus musculus [7] = assay: Unbound ligand concentration in mouse plasma at 50 mg/kg; format: ADME, organism-based; design: dose 50 mg/kg; conditions: in vivo
[8] = Protein binding in mouse plasma; format: ADME, organism-based; conditions: read-out: PPB (converted)
Mus musculus [9] = assay: Reduction of edema in mouse ear inflammation model at 50 mg/kg, po; format: functional; design: scale not given: the % may be the effect or the level left
[10] = Bioavailability in rat at 2 mg/kg, po; format: ADME, organism-based; conditions: in vivo
[11] = Half life in rat at 0.5 mg/kg, iv; format: ADME, organism-based; design: dose 0.5 mg/kg, route intravenous; conditions: in vivo
Mus musculus [12] = assay: Reduction of edema in mouse ear inflammation model at 5 mg/kg, po; format: functional; design: scale not given: the % may be the effect or the level left
Mus musculus [13] = assay: Unbound ligand concentration in mouse plasma at 16.6 mg/kg; format: ADME, organism-based; design: dose 16.6 mg/kg; conditions: in vivo
Mus musculus [14] = organism: Mus musculus; assay: Reduction of swelling in mouse ear at 30 ug; format: functional; design: scale not given: the % may be the effect or the level left
Mus musculus [15] = assay: Reduction of edema in mouse ear inflammation model at 1 mg/kg, po; format: functional; design: scale not given: the % may be the effect or the level left
Mus musculus [16] = organism: Mus musculus; assay: Reduction of swelling in mouse ear at 25 ug; format: functional
Mus musculus [17] = organism: Mus musculus; assay: Reduction of swelling in mouse ear at 2.5 ug; format: functional; design: scale not given: the % may be the effect or the level left
Mus musculus [18] = organism: Mus musculus; assay: Reduction of swelling in mouse ear at 0.25 ug; format: functional; design: scale not given: the % may be the effect or the level left

EC50 [1] [nM] | Compound | also measured
80 | CC(C)c1c(NC(=O)Nc2ccc(Cl)cc2)c(=O)n(-c2cnc3ccccc3c2)n1C | –
12300 | Cc1c(NC(=O)Nc2ccc(C(C)C)cc2)c(=O)n(-c2ccccc2)n1C | –
5880 | Cc1c(NC(=O)Nc2ccc3c(c2)OCO3)c(=O)n(-c2ccccc2)n1C | –
81 | Cc1ccc(NC(=O)Nc2c(C(C)C)n(C)n(-c3ccccc3)c2=O)cc1F | –
1470 | CC(C)c1c(NC(=O)Nc2ccc(C(F)(F)F)cc2)c(=O)n(C2=NCCS2)n1C | –
170 | CSc1ccc(NC(=O)Nc2c(C)n(C)n(-c3ccccc3)c2=O)cc1 | –
90 | Cc1c(NC(=O)Nc2ccc(Br)cc2)c(=O)n(-c2ccccc2)n1C | –
> 10000 | Cc1cc(NC(=O)Nc2c(C)n(C)n(-c3ccccc3)c2=O)ccc1F | –
540 | CC(C)c1c(NC(=O)Nc2ccc(Cl)cc2)c(=O)n(C2=NCCS2)n1C | –
> 10000 | Cc1c(NC(=O)Nc2nccs2)c(=O)n(-c2ccccc2)n1C | –
250 | CC(C)c1c(NC(=O)Nc2ccc(Cl)cc2)c(=O)n(-c2cncnc2)n1C | –
1260 | Cc1ccc(NC(=O)Nc2c(C)n(C)n(-c3ccccc3)c2=O)cc1 | –
43 | CSc1ccc(NC(=O)Nc2c(C(C)C)n(C)n(-c3cncnc3)c2=O)cc1 | –
770 | CCc1ccc(NC(=O)Nc2c(C)n(C)n(-c3ccccc3)c2=O)cc1 | –
– | CC(C)c1c(NC(=O)Nc2ccc(Cl)cc2)c(=O)n(-c2ccccc2)n1C | unbound plasma concentration (Mus musculus [2]): 14 nM; clearance [3]: 2.1 mL/min/kg; Activity (Mus musculus [4]): 39%; IC50 (PMNL [5]): 640 nM; IC50 (PMNL [6]): 240 nM; unbound plasma concentration (Mus musculus [7]): 185 nM; fraction unbound [8]: 0.021; Activity (Mus musculus [9]): 58%; bioavailability [10]: 91%; half-life [11]: 2.78 h; Activity (Mus musculus [12]): 11%; unbound plasma concentration (Mus musculus [13]): 17 nM
– | C[C@@H]1C[C@H]2[C@@H]3CCC4=CC(=O)C=C[C@]4(C)[C@@]3(F)[C@@H](O)C[C@]2(C)[C@@]1(O)C(=O)CO [DEXAMETHASONE] | Activity (Mus musculus [14]): 71%; Activity (Mus musculus [15]): 54%
2730 | COc1ccc(NC(=O)Nc2c(C)n(C)n(-c3ccccc3)c2=O)cc1 | –
– | CCCCC(Oc1ccccc1)[C@@H](O)/C=C/C=C\C=C\C=C\[C@@H](O)[C@@H](O)CCCC(=O)O (stereo not given in full) | Activity (Mus musculus [16]): Active
23 | Cn1c(C(C)(C)C)c(NC(=O)Nc2ccc(Cl)cc2)c(=O)n1-c1ccccc1 | –

EC50 [1] [nM] | Compound | also measured
980 | Cc1ccc(NC(=O)Nc2c(C)n(C)n(-c3ccccc3)c2=O)cc1F | –
44 | CC(C)c1c(NC(=O)Nc2ccc(C(F)(F)F)cc2)c(=O)n(-c2cnc3ccccc3c2)n1C | –
> 10000 | Cc1c(NC(=O)Nc2ccccc2)c(=O)n(-c2ccccc2)n1C | –
150 | CC(C)c1c(NC(=O)Nc2ccc(C(F)(F)F)cc2)c(=O)n(-c2cncnc2)n1C | –
83 | Cc1ccc(NC(=O)Nc2c(C(C)(C)C)n(C)n(-c3ccccc3)c2=O)cc1F | –
> 10000 | CC1C(N(C)C(=O)N(C)c2ccc(I)cc2)C(=O)N(c2ccccc2)N1C (stereo not given) | Activity (Mus musculus [17]): 8%; IC50 (PMNL [5]): > 10000 nM; IC50 (PMNL [6]): > 10000 nM; Activity (Mus musculus [16]): 8%; Activity (Mus musculus [18]): 2%
30 | Cc1c(NC(=O)Nc2ccc(I)cc2)c(=O)n(-c2ccccc2)n1C | Activity (Mus musculus [17]): 35%; IC50 (PMNL [5]): 2000 nM; IC50 (PMNL [6]): 2000 nM; Activity (Mus musculus [16]): 52%; Activity (Mus musculus [18]): 31%
30 | CSc1ccc(NC(=O)Nc2c(C(C)C)n(C)n(-c3cnc4ccccc4c3)c2=O)cc1 | –
100 | CCn1c(C(C)C)c(NC(=O)Nc2ccc(C)c(F)c2)c(=O)n1-c1ccccc1 | –
100 | Cc1c(NC(=O)Nc2ccc(C(F)(F)F)cc2)c(=O)n(-c2ccccc2)n1C | –
3700 | Cc1c(NC(=O)Nc2ccc(C#N)cc2)c(=O)n(-c2ccccc2)n1C | –
140 | CCc1c(NC(=O)Nc2ccc(Cl)cc2)c(=O)n(-c2ccccc2)n1C | –
5130 | CSc1ccc(NC(=O)Nc2c(C(C)C)n(C)n(C3=NCCS3)c2=O)cc1 | –
> 10000 | CC(C)c1c(NC(=O)Nc2ccccc2Cl)c(=O)n(-c2ccccc2)n1C | –
> 10000 | Cc1c(NC(=O)Nc2ccccc2Cl)c(=O)n(-c2ccccc2)n1C | –
4850 | Cc1c(NC(=O)Nc2ccc(F)cc2)c(=O)n(-c2ccccc2)n1C | –
490 | Cc1c(NC(=O)Nc2ccc(Cl)cc2)c(=O)n(-c2ccccc2)n1C | –
310 | CCc1c(NC(=O)Nc2ccc(C)c(F)c2)c(=O)n(-c2ccccc2)n1C | –
> 10000 | Cc1c(NC(=O)Nc2cccc(Cl)c2)c(=O)n(-c2ccccc2)n1C | –
